Laboratory results as given in PMC11054433, “Nature-Inspired 1-Phenylpyrrolo[2,1-a]isoquinoline Scaffold for Novel Antiproliferative Agents Circumventing P-Glycoprotein-Dependent Multidrug Resistance” (Pharmaceuticals, 2024).
Where “and” joins values, the source holds several entries; their conditions need not be identical. Identical values can stand only once. Like-named read-outs stand apart in the source and are kept apart here.

Columns and labels:
[1] = Kinetic solubility in PBS by RP-HPLC; assay type: physicochemical; details: phosphate buffered saline, 25 °C, kinetic from dmso stock
Protocol: Sample solution at 200 μM in PBS (50 mM, pH 7.4, KCl 0.15 M) from a 10 mM stock solution in DMSO was incubated at room temperature (25 ± 1 °C) for 2 h, following shaking of the suspension on an orbital shaker at 250 rpm, and then separated by […]. Immediately after the filtration step, 100 µL of filtrate was transferred into 100 µL of 1:1 (v/v) mixture of DMSO and PBS (50 mM, pH 7.4, KCl 0.15 M), to avoid precipitation from the saturated solution and analyzed by HPLC. The peak area was plotted against a calibration curve of the tested compound in MeOH [21]. Analytical conditions were as follows. Mobile Phase: MeOH/ammonium formate 20 mM pH 4.7 (70:30, 75:25); MeOH 0.1% TFA/H2O 0.1% TFA (70:30, 60:40); stationary phase: Phenomenex, Kinetex 5 μ, C18, 100 Å (150 × 4.6 mm); flux: 1 mL/min; injection: 10 μL, 265, 290, 320 nm wavelength. HPLC analyses were performed on an Agilent HPLC 1260 Infinity Series Integrated System (Agilent Technologies, Milan, Italy).

P-glycoprotein (P-gp) [2] = molecular target: T1, P-glycoprotein (P-gp) (Homo sapiens, UniProt P08183); experiment: Calcein-AM transport inhibition in MDCK-MDR1 cells overexpressing P-gp; details: for IC50: P-gp, IC50, MDCK-MDR1 cells, calcein-AM, mean (SD), at least two independent experiments in triplicate
Protocol: (§3) The P-gp inhibitory potency of eight DHPIQs was evaluated by measuring the transport inhibition of calcein-AM, a profluorescent P-gp substrate, in the MDCK-MDR1 cell line overexpressing P-gp. Moreover, to evaluate the MRP1 inhibitor activity, the same compounds were screened in MDCK-MRP1 cells overexpressing MRP1.
(§4) According to previously described assays [9], MDCK-MDR1 and MDCK-MRP1 cell lines (50,000 cells per well) were seeded into a black CulturePlate 96-well plate with 100 μL medium and allowed to become confluent overnight. […] Saline buffer (100 μL) was added to each well, and the plate was read by a PerkinElmer Victor3 spectrofluorimeter at excitation and emission wavelengths of 485 nm and 535 nm, respectively. In these experimental conditions, calcein cell accumulation in the absence and in the presence of the test compound was evaluated, and the fluorescence basal level was estimated by untreated cells. In the treated wells, the increase of fluorescence with respect to basal level was measured. IC50 values were determined by interpolating the curve of fluorescence increase percentage versus log [conc.].

[3] = molecular target: multidrug-resistance-associated protein-1 (MRP1) (Homo sapiens, UniProt P33527); experiment: Calcein-AM transport inhibition in MDCK-MRP1 cells overexpressing MRP1
Protocol: as §3, §4

[4] = molecular target: T2, human serum albumin (HSA) (Homo sapiens, UniProt P02768); experiment: Binding affinity to immobilized HSA by surface plasmon resonance (SPR)
Protocol: (§5) By plotting the response at equilibrium, the dissociation constant (KD) value was determined for each test compound.
(§6) Fatty acid-free HSA (A3782 from Merck, KGaA Sigma-Aldrich, Darmstadt, Germany) was applied to functionalize the surface of a COOH V sensor chip (Pall FortèBio, Fremont Boulevard, CA, USA), by using amine coupling (EDC/NHS). HSA aqueous stock solution was diluted at the final concentration of 50 μg·mL^−1 in 10 mM sodium acetate buffer (pH 5.0), and immobilization in peripheral flow cells 1 and 3 (unmodified dextran surface in middle flow cell 2 used as a reference) at a final apparent level of about 5000 RU was achieved by applying the following protocol: injection of EDC/NHS (freshly mixed 0.4 M EDC and 0.1 M NHS) 1:1 v/v at a flow of 25 μL·min^−1 for 4 min; injection of HSA solution at a flow of 25 μL·min^−1 for 8 min; capping on unreacted activated carboxyl groups by injection of 1 M ethanolamine solution (pH 9) at a flow of 25 μL·min^−1 for 8 min. The functionalized surface was then treated with repeated injection of 4 M NaCl, as a regenerating reagent, and conditioned overnight prior to use with pH 7.4 PBS (10 mM NaH2PO4 and 150 mM NaCl) as a running buffer. Each cycle (without the need of regeneration) for binding assay to HSA was carried out in PBS/4% v/v DMSO and consisted of a run buffer injection (60 s), injection of analyte single concentration for 120 s (ranging from 1 to 200 μM) at a flow 20 μL·min^−1, and a dissociation phase for 150 s (flow 20 μL·min^−1). Each measurement was performed at least in triplicate and analyzed by using QDAT software, vers 2.2.0.7 (non-linear regression analysis of 1:1 stoichiometric reversible binding model), and double referencing.

[5] = test system: HCT116 (colon cancer) cells; details: mean (SD), cited from earlier work
[6] = test system: A549 (lung adenocarcinoma) cells; details: mean (SD), cited from earlier work
[7] = Lipophilicity by RP-HPLC (polycratic capacity factor); assay type: physicochemical; details: capacity factor extrapolated to 100% aqueous mobile phase, aqueous component pH 4.7
Protocol: To quantitate the effect of hydrophobicity on the biological activity of the examined compounds, a relative lipophilicity scale was determined by RP-HPLC [20]. The polycratic capacity factor (log k′w) for each compound in Table 2 was experimentally determined (details in the experimental section) and compared with 1-octanol–water partition coefficient calculated (Clog P) with ACDLabs software (release 10.0; Advanced Chemistry Development, Inc., Toronto, ON, Canada). Log k′w values are quite well correlated with Clog Ps for the whole series (r^2 = 0.791). However, omitting from the regression the two Mannich bases 8b and 8c, which, due to their basicity (pKas about 6.9, estimated by ACDLabs software), should be predominantly in the protonated forms at pH 4.7 (i.e., the pH of the aqueous component of the mobile phase in RP-HPLC), the correlation slightly improves (r^2 = 0.859), providing a linear equation with a slope equal to +0.8 and an intercept of about −0.1.
The lipophilicity parameters were determined by an RP-HPLC technique. Methanol solution of DHPIQ derivatives (1 mg/mL) were analyzed by an Agilent 1260 infinite HPLC system (Agilent Technologies, Milan, Italy) equipped with a diode array detector (DAD), and a Phenomenex, Kinetex 5 μ, C18, 100 Å (150 × 4.6 mm), and eluted with different percentage of mobile phase composition (0.05 increments of MeOH volume fractions in 20 mM ammonium formate buffer at pH 4.7 or water 0.1% v/v TFA, with φ ranging between 0.85 and 0.30). The chromatographic measurements were carried out at 25 ± 1 °C at a flow rate of 1 mL·min^−1 and at 265, 290, 320 nm wavelengths. The log of capacity factors (log k′ = log (tR − t0)/t0) of each compound at different mobile phase compositions was calculated; tR represents the retention time of the solute and t0 is the column dead time, measured as the elution time of a KNO3 solution in MeOH. For each compound, the log k′ values increased linearly with decreasing MeOH volume fraction. The logarithms of the capacity factor extrapolated to 100% aqueous mobile phase (log k′w) were calculated from the linear regressions on at least five data points (r^2 > 0.9984).

[8] = test system: HeLa (adenocarcinoma of the cervix uterus) cells; details: mean (SD), cited from earlier work
[9] = test system: RD (rhabdomyosarcoma) cells; details: mean (SD), cited from earlier work
P-glycoprotein (P-gp) [10] = molecular target: T1, P-glycoprotein (P-gp); design: expressed in transfected cells; host or cells: MDCK-MDR1 (gift from Prof. P. Borst, NKI-AVL); method as in PMID 29802687; details: MDCK-MDR1 cells; ref [9]; cited from earlier work
[11] = test system: HeLa (adenocarcinoma of the cervix uterus) cells; experiment: MTT antiproliferative (cytotoxicity) assay, HeLa cells; assay type: cell-based, Human; details: 72 h, mean (SD), triplicate, n.a. = not active at 100 μM, >100 = less than 60% inhibition at 100 μM
Protocol: (§1) The newly synthesized 1-Ph-DHPIQs, along with the previously reported derivatives 4a, 4c, 6a and 6c, with camptothecin and doxorubicin as positive controls, were tested at the maximum concentration of 100 μM for their antiproliferative activity, using an MTT assay on RD, HCT116, HeLa and A549 cancer cell lines. Compounds showing more than 50% inhibition were tested at lower scalar concentrations, and IC50 values were calculated by interpolation of the dose-response curves (Table 1). […]
(§2) The antiproliferative activity of the newly synthesized compounds, along with some previously reported analogs, and camptothecin and doxorubicin as positive controls was determined by the MTT (3-(4,5-dimethylthiazol-2-yl)-2,5-diphenyltetrazolium bromide) assay. The cells were seeded at a concentration of 1 × 10 ^4 cells/200 μL in a 96-well plate and cultured at 37 °C in a humidified atmosphere with 5% CO2. After 24 h of incubation, scalar concentrations of each test compound (100 to 1.56 μmol·L^−1) were added to the cancer cell culture and the cells were then cultured under the same conditions for 72 hr. Each concentration of the test compound was assayed in triplicate. […] Wells with the 0.1% v/v DMSO were used as controls. After incubation, 20 μL of MTT (5 mg·mL^−1) was added to each well and the plates were incubated for a further 2 h. Next, media were removed from the plates, and 100 μL of DMSO was added to each well to dissolve the formed formazan crystals. Using a flatbed analyzer (Victor^3, PerkinElmer, Waltham, MA, USA), the optical density was determined at 530 nm, minus the measured background absorbance at 620 nm. The concentration value, which causes 50% inhibition of cell population growth (IC50), was determined from the dose-dependent curves using the OriginPro 9.0 software.

[12] = test system: HCT116 (colon cancer) cells; experiment: MTT antiproliferative (cytotoxicity) assay, HCT116 cells; assay type: cell-based, Human; details: mean (SD), triplicate, n.a. = not active at 100 μM, >100 = less than 60% inhibition at 100 μM
Protocol: as §1, §2

P-gp versus MRP1 = P-gp versus MRP1 (Homo sapiens, UniProt P08183); experiment: Calcein-AM transport inhibition in MDCK-MDR1 cells overexpressing P-gp; details: human, MDCK-MDR1 cells and MDCK-MRP1 cells, probe calcein-AM
Protocol: as §3, §4

[13] = test system: A549 (lung adenocarcinoma) cells; experiment: MTT antiproliferative (cytotoxicity) assay, A549 cells; assay type: cell-based, Human; details: mean (SD), triplicate, n.a. = not active at 100 μM, >100 = less than 60% inhibition at 100 μM
Protocol: The antiproliferative activity of the newly synthesized compounds, along with some previously reported analogs, and camptothecin and doxorubicin as positive controls was determined by the MTT (3-(4,5-dimethylthiazol-2-yl)-2,5-diphenyltetrazolium bromide) assay. […] Each concentration of the test compound was assayed in triplicate. […] Wells with the 0.1% v/v DMSO were used as controls. After incubation, 20 μL of MTT (5 mg·mL^−1) was added to each well and the plates were incubated for a further 2 h. Next, media were removed from the plates, and 100 μL of DMSO was added to each well to dissolve the formed formazan crystals. Using a flatbed analyzer (Victor^3, PerkinElmer, Waltham, MA, USA), the optical density was determined at 530 nm, minus the measured background absorbance at 620 nm.

[14] = Hydrolytic stability monitored by RP-HPLC; assay type: physicochemical; details: 0.15 M KCl
Excerpt: In particular, the transformation of the DHPIQ-2-aldehyde via Mannich reaction (8b,c) opens the road to future developments of new water-soluble antiproliferative DHPIQ derivatives endowed with the ability to inhibit P-gp and reverse MDR.

[15] = molecular target: T2, human serum albumin (HSA); details: 10 μM, pH 7.4
Protocol: as §5, §6

[16] = test system: RD (rhabdomyosarcoma) cells; experiment: MTT antiproliferative (cytotoxicity) assay, RD cells; assay type: cell-based, Human; details: 72 h, mean (SD), triplicate, n.a. = not active at 100 μM, >100 = less than 60% inhibition at 100 μM
Protocol: as §1, §2

[17] = aqueous buffer, PBS (50 mM, pH 7.4, 0.15 M KCl) at 25 ± 1 °C, read-out: S (solubility)

T2 sequence (P02768 25-609): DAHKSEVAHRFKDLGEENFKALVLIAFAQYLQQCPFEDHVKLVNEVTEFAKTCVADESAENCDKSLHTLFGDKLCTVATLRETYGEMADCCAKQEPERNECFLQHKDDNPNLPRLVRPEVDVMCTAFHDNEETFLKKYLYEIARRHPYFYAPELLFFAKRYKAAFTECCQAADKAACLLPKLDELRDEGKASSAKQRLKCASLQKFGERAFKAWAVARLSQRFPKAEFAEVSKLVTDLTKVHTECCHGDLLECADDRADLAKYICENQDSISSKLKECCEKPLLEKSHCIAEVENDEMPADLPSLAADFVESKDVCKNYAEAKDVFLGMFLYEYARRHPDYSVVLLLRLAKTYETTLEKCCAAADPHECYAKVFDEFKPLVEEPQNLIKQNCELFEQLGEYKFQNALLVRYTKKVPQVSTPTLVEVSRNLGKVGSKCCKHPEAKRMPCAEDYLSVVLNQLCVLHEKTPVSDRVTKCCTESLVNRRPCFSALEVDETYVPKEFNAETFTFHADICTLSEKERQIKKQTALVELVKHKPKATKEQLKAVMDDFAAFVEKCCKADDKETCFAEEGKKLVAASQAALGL
T1 sequence (P08183 whole entry): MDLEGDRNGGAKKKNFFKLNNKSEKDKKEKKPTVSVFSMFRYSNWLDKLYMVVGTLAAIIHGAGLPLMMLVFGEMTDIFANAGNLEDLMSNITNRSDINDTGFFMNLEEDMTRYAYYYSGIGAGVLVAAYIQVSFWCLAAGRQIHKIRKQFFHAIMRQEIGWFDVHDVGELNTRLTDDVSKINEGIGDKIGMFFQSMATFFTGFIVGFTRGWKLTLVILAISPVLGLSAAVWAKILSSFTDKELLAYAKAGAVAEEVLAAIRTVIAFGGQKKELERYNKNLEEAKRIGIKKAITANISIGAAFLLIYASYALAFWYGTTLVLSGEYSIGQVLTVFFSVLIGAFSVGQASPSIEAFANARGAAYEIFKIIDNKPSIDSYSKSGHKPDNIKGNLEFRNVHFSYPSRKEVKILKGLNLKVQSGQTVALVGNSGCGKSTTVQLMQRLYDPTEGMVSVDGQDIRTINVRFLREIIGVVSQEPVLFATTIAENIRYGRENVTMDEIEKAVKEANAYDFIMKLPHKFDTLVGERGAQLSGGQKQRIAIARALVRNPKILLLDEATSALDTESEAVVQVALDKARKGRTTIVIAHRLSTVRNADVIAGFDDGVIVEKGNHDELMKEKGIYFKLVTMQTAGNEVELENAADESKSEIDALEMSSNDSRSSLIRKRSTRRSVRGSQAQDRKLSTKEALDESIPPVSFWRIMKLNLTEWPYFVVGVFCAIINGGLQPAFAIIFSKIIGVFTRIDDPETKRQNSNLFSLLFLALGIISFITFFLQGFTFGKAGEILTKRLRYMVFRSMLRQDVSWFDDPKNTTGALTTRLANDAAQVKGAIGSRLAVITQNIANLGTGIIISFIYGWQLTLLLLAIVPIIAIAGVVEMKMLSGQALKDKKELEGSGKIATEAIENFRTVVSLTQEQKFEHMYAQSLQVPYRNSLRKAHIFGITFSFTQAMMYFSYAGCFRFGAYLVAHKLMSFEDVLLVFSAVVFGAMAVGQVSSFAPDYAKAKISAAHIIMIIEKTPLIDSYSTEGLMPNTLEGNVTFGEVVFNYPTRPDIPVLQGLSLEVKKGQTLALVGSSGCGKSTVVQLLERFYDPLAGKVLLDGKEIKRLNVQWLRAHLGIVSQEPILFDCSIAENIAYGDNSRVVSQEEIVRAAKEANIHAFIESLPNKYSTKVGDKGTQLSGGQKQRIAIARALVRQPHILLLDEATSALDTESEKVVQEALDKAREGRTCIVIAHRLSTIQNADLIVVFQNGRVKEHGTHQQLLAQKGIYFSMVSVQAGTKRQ
Chain of multidrug-resistance-associated protein-1 (MRP1) (P33527 whole entry): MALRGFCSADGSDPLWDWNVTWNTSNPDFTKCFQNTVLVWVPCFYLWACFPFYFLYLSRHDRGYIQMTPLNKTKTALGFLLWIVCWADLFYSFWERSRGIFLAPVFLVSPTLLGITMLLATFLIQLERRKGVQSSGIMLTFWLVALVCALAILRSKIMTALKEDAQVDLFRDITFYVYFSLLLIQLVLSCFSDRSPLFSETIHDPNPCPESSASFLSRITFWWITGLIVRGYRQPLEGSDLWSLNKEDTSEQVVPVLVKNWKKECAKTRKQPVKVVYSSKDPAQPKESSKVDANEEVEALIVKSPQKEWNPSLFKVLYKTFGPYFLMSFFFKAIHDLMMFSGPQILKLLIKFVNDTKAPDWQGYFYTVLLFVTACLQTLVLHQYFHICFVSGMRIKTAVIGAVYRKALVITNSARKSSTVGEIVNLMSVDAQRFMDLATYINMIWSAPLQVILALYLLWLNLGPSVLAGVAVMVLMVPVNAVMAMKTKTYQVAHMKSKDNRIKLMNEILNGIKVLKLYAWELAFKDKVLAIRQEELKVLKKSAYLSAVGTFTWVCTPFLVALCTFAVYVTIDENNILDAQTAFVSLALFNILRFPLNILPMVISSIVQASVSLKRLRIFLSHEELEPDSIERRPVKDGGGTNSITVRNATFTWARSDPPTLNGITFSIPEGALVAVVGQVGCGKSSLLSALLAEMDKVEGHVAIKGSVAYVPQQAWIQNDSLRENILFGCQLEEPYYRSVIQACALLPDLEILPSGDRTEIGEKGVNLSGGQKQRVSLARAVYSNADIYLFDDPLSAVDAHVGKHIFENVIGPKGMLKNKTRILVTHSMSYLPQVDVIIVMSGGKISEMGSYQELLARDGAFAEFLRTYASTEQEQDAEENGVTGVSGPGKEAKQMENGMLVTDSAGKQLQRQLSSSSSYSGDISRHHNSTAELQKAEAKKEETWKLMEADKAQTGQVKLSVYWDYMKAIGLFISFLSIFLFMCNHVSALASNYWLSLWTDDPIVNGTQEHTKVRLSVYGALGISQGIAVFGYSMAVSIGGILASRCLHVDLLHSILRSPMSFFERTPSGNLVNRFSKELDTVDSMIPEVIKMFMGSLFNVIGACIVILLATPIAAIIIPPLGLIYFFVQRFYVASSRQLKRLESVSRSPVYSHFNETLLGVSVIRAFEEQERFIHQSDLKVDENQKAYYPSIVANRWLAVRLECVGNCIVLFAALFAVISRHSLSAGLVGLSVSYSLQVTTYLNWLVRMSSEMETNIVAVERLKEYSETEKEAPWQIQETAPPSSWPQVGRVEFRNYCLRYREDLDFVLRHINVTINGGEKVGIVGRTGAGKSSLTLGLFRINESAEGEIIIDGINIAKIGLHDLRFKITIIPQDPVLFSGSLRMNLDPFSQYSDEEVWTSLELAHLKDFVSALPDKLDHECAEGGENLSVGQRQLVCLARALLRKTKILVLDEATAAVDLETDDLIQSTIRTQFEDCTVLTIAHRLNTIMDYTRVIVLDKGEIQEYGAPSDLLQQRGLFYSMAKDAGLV
Chain of P-gp versus MRP1 (P08183 whole entry): as the sequence (P08183 whole entry) above

## COc1cc2c(cc1OC)-c1c(-c3ccc(Cl)cc3)c(C=O)cn1CC2 [Compound 4a]
[1]; [17]
  solubility at 2 h: 6.66 µM
P-glycoprotein (P-gp) [2]
  IC50: 25.3 µM
P-glycoprotein (P-gp) [2]; ratio of MRP1 and P-gp inhibition potency
  P-gp/MRP1 selectivity (toward P-gp): unselective
[3]
  IC50: 21.9 µM
[4]
  Kd: 1.6 µM
[5]; ref [5]
  IC50: 22 µM
[6]; ref [5]
  IC50: 38.6 µM
[7]
  Log k′w: 4.32
[8]; ref [5]
  IC50: 33 µM
[9]; ref [5]
  IC50: 17.6 µM

## CCOc1ccc(-c2c(C=O)cn3c2-c2cc(OCC)c(OCC)cc2CC3)cc1OCC [Compound 4c]
[5]; ref [8]
  IC50: 11.8 µM
P-glycoprotein (P-gp) [10]
  IC50: < 0.5 µM
[6]; ref [8]
  IC50: 19.7 µM
[8]; ref [8]
  IC50: 44.5 µM
[9]; ref [8]
  IC50: 21.3 µM

## CCOc1ccc(-c2c(CN3CCOCC3)cn3c2-c2cc(OCC)c(OCC)cc2CC3)cc1OCC [Compound 8c, 1-(3,4-Diethoxyphenyl)-8,9-diethoxy-2-(morpholin-4-ylmethyl)-5,6-dihydropyrrolo[2,1-a]isoquinoline]
[11]
  IC50: 17.5 µM
[11]; Homo sapiens, HeLa
  IC50: < 21 µM
[12]; 72 h
  IC50: 15.7 µM
[12]; Homo sapiens, HCT-116, 72 h
  IC50: < 21 µM
[1]; [17]
  solubility at 2 h: 41.7 µM
[1]; pH 7.4, aqueous buffer, ‘practically insoluble’ threshold of US and European Pharmacopoeia, read-out: Solubility category in buffered water solution at neutral pH
  solubility at 2 h: < 100 µg/mL
P-glycoprotein (P-gp) [2]
  IC50: < 0.5 µM and 0.45 µM
P-gp versus MRP1
  selectivity ratio: ~30
[3]
  IC50: 12.1 µM
[13]; 72 h
  IC50: 20.8 µM
[13]; Homo sapiens, A549, 72 h
  IC50: < 21 µM
[14]; 0.01 M HClaq, pH 2, 25 °C
  Hydrolytic stability at pH 2: stable
[14]; 50 mM PBS, pH 7.4, 25 °C
  Hydrolytic stability at pH 7.4: stable
[4]
  Kd: 26.9 µM
[15]
  Predicted fraction bound to HSA: less than 40%
[7]
  Log k′w: 4.31
[16]
  IC50: < 20 µM and 18.6 µM
[16]; Homo sapiens, Rhabdomyosarcoma cell
  IC50: < 21 µM
